Measurements reported in US12427134B2, “Methods of reducing the risk of cardiovascular events in a subject with atrial fibrillation and/or atrial flutter” (priority 2019, dated 2025).

Tested on: hypertriglyceridemic patients with cardiovascular disease or at high risk for cardiovascular disease
Test: REDUCE-IT: subgroup analyses of the primary and key secondary endpoints
Format: in vivo, human
Conditions: for Primary endpoint, patients with event (%) / Time to primary endpoint, HR (95% CI) AMR101/Placebo: ITT
Experimental: Exploratory Subgroup Analyses: Analyses of the effects that patients off study drug and withdrawn from study have on the primary endpoint were performed. Subgroup analyses of the primary and key secondary endpoints were performed as described for the primary endpoint. For each subgroup, Kaplan-Meier estimates, the log-rank test stratified by stratification factors used at randomization (except where the subgroup was a stratification factor), and HRs and CIs from the Cox proportional hazards model as specified for the primary efficacy endpoint, were summarized by treatment group. Demographic, disease, treatment, and baseline lipid and lipoproteins parameters were explored.
Demographic parameters included: Gender; age at baseline (<65 years and ≥65 years); race (white and nonwhite, or any other subset with at least 10% of the total number of patients); geographical region (Westernized, Eastern European, and Asia Pacific countries); and baseline ezetimibe use (yes/no).
Disease parameters included: CV risk category; the presence/absence of diabetes at baseline; and renal dysfunction at baseline (estimated glomerular filtration rate [eGFR]<60 mL/min/1.73 m^2) using the Chronic Kidney Disease Epidemiology Collaboration (CKD-EPI) equation as follows: eGFR=141×min(Scr/κ,1)^α×max(Scr/κ,1)^[…]^Age×1.018 [if female]×1.159 [if black]
Treatment Parameters included: Statin intensity at baseline (statin type and regimen); and statin intensity categories as defined in ACC/AHA Cholesterol Guidelines (Stone 2013) and patient's 10-year CV Risk Score (Goff 2013).
Baseline Lipid and Lipoprotein Parameter included: LDL-C (by tertile); HDL-C (by tertile, and tertile by gender); TG (by tertile, and tertile by gender); RLP-C (by tertile); TG ≥150 mg/dL and TG <150 mg/dL; TG ≥200 mg/dL and TG <200 mg/dL; TG ≥median, TG <median; combined highest tertile for TG and lowest tertile for HDL-C; gender-specific highest tertile for TG and lowest tertile for HDL-C; TG ≥200 mg/dL with HDL-C ≤35 mg/dL; hsCRP (≤3 mg/L and >3 mg/L) and by gender; hsCRP (≤2 mg/L and >2 mg/L) and by gender; Apo B (by tertile); non-HDL-C (by tertile); baseline hemoglobin A1c (Hb1c) value (<6.5%, ≥6.5%); baseline PAD; and baseline TG levels ≥150 mg/dL with high-density lipoprotein cholesterol (HDL-C) levels ≤40 mg/dL for males and ≤50 mg/dL for females.
A Cox proportional hazard (PH) model as mentioned above but additionally with baseline TG as a covariate were fitted to the data at each interim. Diagnostic plots for the PH assumption were evaluated. The consistency of the treatment effects in subgroups was assessed for the primary and key secondary efficacy endpoints. For each subgroup variable, a Cox PH model with terms for treatment, stratification factors (with the exception of those subgroup variables related to the stratification factors, i.e., CV risk category), subgroup, and treatment-by-subgroup interaction were performed. The main treatment effect was tested with this model. P-values for testing the interaction terms <0.15 were considered significant. Results were presented in a Forest plot.
Subgroup analyses of the primary and key secondary endpoints were performed as described for the primary endpoint. For each subgroup, Kaplan-Meier estimates, the log-rank test stratified by stratification factors used at randomization (except where the subgroup was a stratification factor), and HRs and CIs from the Cox proportional hazards model as specified for the primary efficacy endpoint, were summarized by treatment group. All subgroup analyses were conducted for the ITT, mITT and PP populations.
Of note regarding the following subgroup analyses, per study design, subgroup analyses are underpowered to detect statistically significant results within each individual subgroup, particularly when a subgroup represents less than 50% of the enrolled population, and when a subgroup has low event rates. […]

[1] = Overall (Males and Females), TG Lowest Tertile (≥81.25 to ≤190 mg/dL)
[2] = Overall (Males and Females), TG Middle Tertile (>190 to ≤250 mg/dL)
[3] = RLP-C (Derived) Highest Tertile (>34.30 to ≤105.86 mg/dL)
[4] = RLP-C (Derived) Lowest Tertile (≥11.89 to ≤28.09 mg/dL)
[5] = RLP-C (Derived) Middle Tertile (>28.09 to ≤34.30 mg/dL)
[6] = TG Lower Half (≥81.25 and ≤216 mg/dL)
[7] = TG Upper Half (>216 and ≤1401 mg/dL)
[8] = above or at the median baseline TG (>216 mg/dL)
[9] = baseline TG <150 mg/dL and HDL-C >40 mg/dL (males) or >50 mg/dL (females)
[10] = baseline TG ≥150 mg/dL and HDL-C ≤40 mg/dL (males) or ≤50 mg/dL (females)
[11] = below the median baseline TG (≥81.25 and ≤216 mg/dL)
[12] = females, middle tertile baseline TG (>186 to ≤241.5 mg/dL)
[13] = highest tertile baseline HDL-C (>43.5 to ≤107.5 mg/dL)
[14] = highest tertile baseline RLP-C (>34.30 to ≤105.86 mg/dL)
[15] = highest tertile baseline TG (>250 to ≤401 mg/dL)
[16] = highest tertile baseline TG and lowest tertile baseline HDL-C
[17] = history of peripheral artery disease
[18] = lowest tertile baseline HDL-C (≥17 to ≤36.5 mg/dL)
[19] = lowest tertile baseline RLP-C (≥11.89 to ≤28.09 mg/dL)
[20] = lowest tertile baseline TG (≥81.25 to ≤190 mg/dL)
[21] = middle tertile baseline HDL-C (>36.5 to ≤43.5 mg/dL)
[22] = middle tertile baseline RLP-C (>28.09 to ≤34.30 mg/dL)
[23] = middle tertile baseline TG (>190 to ≤250 mg/dL)
[24] = not in the highest tertile baseline TG and lowest tertile baseline HDL-C
[25] = primary prevention subgroup (CV risk category 2)
[26] = secondary prevention subgroup (CV risk category 1)
[27] = without atherogenic dyslipidemia
[28] = without history of peripheral artery disease

CC/C=C\C/C=C\C/C=C\C/C=C\C/C=C\CCCC(=O)OCC [AMR101, eicosapentaenoic acid ethyl ester]
Primary endpoint, patients with event (%) [1]: 16.9% | Time to primary endpoint, HR (95% CI) AMR101/Placebo [1]: 0.789 | Primary endpoint, patients with event (%) [2]: 18.0% | Time to primary endpoint, HR (95% CI) AMR101/Placebo [2]: 0.804 | Primary endpoint, patients with event (%) (PAD History - No): 16.3% | Time to primary endpoint, HR (95% CI) AMR101/Placebo (PAD History - No): 0.744 | Primary endpoint, patients with event (%) (PAD History - Yes): 26.6% | Time to primary endpoint, HR (95% CI) AMR101/Placebo (PAD History - Yes): 0.803 | Primary endpoint, patients with event (%) [3]: 17.8% | Time to primary endpoint, HR (95% CI) AMR101/Placebo [3]: 0.715 | Primary endpoint, patients with event (%) [4]: 17.1% | Time to primary endpoint, HR (95% CI) AMR101/Placebo [4]: 0.806 | Primary endpoint, patients with event (%) [5]: 16.8% | Time to primary endpoint, HR (95% CI) AMR101/Placebo [5]: 0.750 | Primary endpoint, patients with event (%) [6]: 17.3% | Time to primary endpoint, HR (95% CI) AMR101/Placebo [6]: 0.803 | Primary endpoint, patients with event (%) [7]: 17.2% | Time to primary endpoint, HR (95% CI) AMR101/Placebo [7]: 0.709 | Primary endpoint event, patients (US patients): 18.2% | Primary endpoint, HR (US patients): 0.687 | Primary endpoint event, patients [8]: 17.2% | Primary endpoint, HR [8]: 0.709 | Primary endpoint event, patients (atherogenic dyslipidemia (baseline TG ≥200 mg/dL and HDL-C ≤35 mg/dL)): 18.1% | Primary endpoint event, patients (baseline HbA1c <6.5%): 16.5% | Primary endpoint, HR (baseline HbA1c <6.5%): 0.793 | Primary endpoint event, patients (baseline HbA1c ≥6.5%): 18.1% | Primary endpoint, HR (baseline HbA1c ≥6.5%): 0.701 | Primary endpoint event, patients [9]: 18.2% | Primary endpoint, HR [9]: 0.842 | Primary endpoint event, patients [10]: 16.5% | Primary endpoint, HR [10]: 0.691 | Primary endpoint event, patients (baseline hsCRP >2 mg/L): 19.2% | Primary endpoint, HR (baseline hsCRP >2 mg/L): 0.813 | Primary endpoint event, patients (baseline hsCRP ≤2 mg/L): 15.0% | Primary endpoint, HR (baseline hsCRP ≤2 mg/L): 0.680 | Primary endpoint event, patients [11]: 17.3% | Primary endpoint, HR [11]: 0.803 | Primary endpoint event, patients [12]: 15.1% | Primary endpoint, HR [12]: 1.077 | Primary endpoint event, patients [13]: 15.9% | Primary endpoint, HR [13]: 0.812 | Primary endpoint event, patients [14]: 17.8% | Primary endpoint, HR [14]: 0.715 | Primary endpoint event, patients [15]: 16.9% | Primary endpoint, HR [15]: 0.675 | Primary endpoint event, patients [16]: 19.1% | Primary endpoint, HR [16]: 0.670 | Primary endpoint event, patients [17]: 26.6% | Primary endpoint, HR [17]: 0.803 | Primary endpoint event, patients [18]: 18.1% | Primary endpoint, HR [18]: 0.667 | Primary endpoint event, patients [19]: 17.1% | Primary endpoint, HR [19]: 0.806 | Primary endpoint event, patients [20]: 16.9% | Primary endpoint, HR [20]: 0.789 | Primary endpoint event, patients [21]: 17.6% | Primary endpoint, HR [21]: 0.800 | Primary endpoint event, patients [22]: 16.8% | Primary endpoint, HR [22]: 0.750 | Primary endpoint event, patients [23]: 18.0% | Primary endpoint, HR [23]: 0.804 | Primary endpoint event, patients (non-US patients): 16.7% | Primary endpoint, HR (non-US patients): 0.803 | Key secondary endpoint event, patients (non-white patients): 10.3% | Key secondary endpoint, HR (non-white patients): 0.554 | Primary endpoint event, patients [24]: 16.3% | Primary endpoint, HR [24]: 0.679 | Key secondary endpoint, point estimate of the HR (patients on statins of low intensity at baseline): 1.200 | Primary endpoint event, patients [25]: 12.2% | Primary endpoint, HR [25]: 0.876 | Primary endpoint event, patients [26]: 19.3% | Primary endpoint, HR [26]: 0.726 | Key secondary endpoint event, patients (white patients): 11.3% | Key secondary endpoint, HR (white patients): 0.758 | Primary endpoint event, patients [27]: 17.0% | Primary endpoint, HR [27]: 0.791 | Primary endpoint event, patients [28]: 16.3% | Primary endpoint, HR [28]: 0.744 | Key secondary endpoint event, patients (≥65 years subgroup): 13.9% | Key secondary endpoint, HR (≥65 years subgroup): 0.824 | Primary endpoint event, patients (≥65 years subgroup): 20.6% | Primary endpoint, HR (≥65 years subgroup): 0.873
